In PMC10647736, “Aza Analogs of the TRPML1 Inhibitor Estradiol Methyl Ether (EDME)” (Molecules, 2023):
“Also recorded” adds a separate entry of the source. Where two headings read alike, the source gives them in different places.

Assays:
[1] = molecular target: T1, hTRPML1ΔNC-YFP, a plasma membrane variant of wild-type TRPML1 (Homo sapiens, UniProt Q9GZU1); parameters: method as in PMID 33859333; conditions: previous work, cited from earlier work; for IC50: hTRPML1ΔNC-YFP, read-out: IC50 TRPML1 inhibition
[2] = molecular target: T1, hTRPML1ΔNC-YFP, a plasma membrane variant of wild-type TRPML1; experiment: TRPML1 inhibition, fluorimetric Ca2+ influx assay (Fluo-4/AM) on HEK293 cells stably expressing plasma membrane-targeted TRPML1; type: cell-based; conditions: for IC50 / TRPML1-inhibitory activity (in words): hTRPML1ΔNC-YFP; for IC50: HEK293 cells, Ca2+ influx, Fluo-4/AM; for TRPML1-inhibitory activity (in words): Ca2+ influx assay
Text: The two target compounds, pyridine analog 1 and pyrimidine analog 2, as well as the inadvertently obtained pyridone analog 6 were submitted to our previously described test for inhibition of TRPML1 on hTRPML1ΔNC-YFP, a plasma membrane variant of wild-type TRPML1 by means of a fluorimetric Ca^2+ influx assay.
hTRPML1ΔNC-YFP, a plasma membrane variant of wild-type TRPML1, was obtained from HEK293 cells stably expressing plasma membrane-targeted TRPML1 by trypsination and after resuspending in HEPES buffered solution. IC50 values for TRPML1 inhibition were determined on a fluorescence imaging plate reader built into a robotic liquid handling station (Freedom Evo 150, Tecan, Mannedorf, Switzerland) using the calcium dye Fluo-4/AM (Invitrogen, Thermo Fisher Scientific, Waltham, MA, USA) according to the test procedure described in our previous work in the section Compound screening and generation of concentration–response curves.

[3] = parameters: method as in PMID 33859333; conditions: compared to EDME; cited from earlier work

T1 sequence (Q9GZU1 whole entry, stated change not applied): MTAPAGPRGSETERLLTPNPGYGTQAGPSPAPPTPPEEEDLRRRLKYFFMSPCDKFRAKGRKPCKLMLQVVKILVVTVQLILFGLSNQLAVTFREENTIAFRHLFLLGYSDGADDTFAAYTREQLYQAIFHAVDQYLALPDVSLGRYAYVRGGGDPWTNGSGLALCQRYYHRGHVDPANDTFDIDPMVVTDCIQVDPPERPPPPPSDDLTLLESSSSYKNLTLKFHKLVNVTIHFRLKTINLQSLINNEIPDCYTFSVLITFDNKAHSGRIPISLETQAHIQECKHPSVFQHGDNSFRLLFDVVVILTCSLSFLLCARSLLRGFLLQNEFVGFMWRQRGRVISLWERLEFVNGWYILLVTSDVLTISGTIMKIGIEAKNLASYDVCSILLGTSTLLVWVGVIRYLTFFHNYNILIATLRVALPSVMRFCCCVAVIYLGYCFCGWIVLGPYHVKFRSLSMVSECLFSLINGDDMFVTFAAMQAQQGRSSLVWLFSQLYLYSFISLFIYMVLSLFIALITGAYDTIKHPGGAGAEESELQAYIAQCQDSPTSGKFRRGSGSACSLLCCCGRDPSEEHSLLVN

Row | Structure (SMILES) | IC50 [1] [nM] | IC50 [2] [nM] | also measured
1 | C[C@]12CC[C@@H]3c4ccc(O)cc4CC[C@H]3[C@@H]1CC[C@@H]2O [17β-estradiol] | 5300 |  | 
2 | COc1ccc2c(n1)CC[C@@H]1[C@@H]2CC[C@]2(C)[C@@H](O)CC[C@@H]12 [Compound 1, (4bS,6aS,7S,9aS,9bR)-2-Methoxy-6a-methyl-4b,6,6a,7,8,9,9a,9b,10,11-decahydro-5H-indeno[5,4-f]quinolin-7-ol] |  | 1000 | TRPML1-inhibitory activity, factor less potent than EDME ([2]; compared to EDME): < 2; melting point: 157 °C
3 | COc1ncc2c(n1)CC[C@@H]1[C@@H]2CC[C@]2(C)[C@@H](O)CC[C@@H]12 [Compound 2, (4bS,6aS,7S,9aS,9bR)-2-Methoxy-6a-methyl-4b,6,6a,7,8,9,9a,9b,10,11-decahydro-5H-indeno[5,4-f]quinazolin-7-ol] |  | 8800 | TRPML1-inhibitory activity (in words) [2]: only a very weak inhibitor; also recorded: significantly lost inhibitory potency
4 | C[C@]12CC[C@@H]3c4ccc(=O)[nH]c4CC[C@H]3[C@@H]1CC[C@@H]2O [Compound 6, (4bS,6aS,7S,9aS,9bR)-7-hydroxy-6a-methyl-1,4b,5,6,6a,7,8,9,9a,9b,10,11-dodecahydro-2H-indeno[5,4-f]quinolin-2-one] |  | 40000 | TRPML1-inhibitory activity (in words) [2]: virtually inactive; TRPML1-inhibitory activity (in words) ([2]; listed as pyridone analog): completely inactive
5 | COc1ccc2c(c1)CC[C@@H]1[C@@H]2CC[C@]2(C)[C@@H](O)CC[C@@H]12 [EDME, estradiol methyl ether] | 600 | 600 | 
6 | C=Cc1ccc2c(c1)CC[C@@H]1[C@@H]2CC[C@]2(C)[C@@H](O)CC[C@@H]12 [PRU-10] | 410 |  | estrogenic activity (in words) [3]: reduced estrogenic activity
7 | CC(=O)c1ccc2c(c1)CC[C@@H]1[C@@H]2CC[C@]2(C)[C@@H](O)CC[C@@H]12 [PRU-12] | 280 |  | estrogenic activity (in words) [3]: reduced estrogenic activity
8 | C#C[C@]1(O)CC[C@H]2[C@@H]3CCc4cc(OC)ccc4[C@H]3CC[C@@]21C [mestranol] |  |  | TRPML1 inhibition (in words) [1]: considerable activity
